Test results as given in patent publication US11573241B2, “Total cellular iron as a marker of cancer stem cells and uses thereof” (Institut National de la Sante et de la Recherche Medicale …, priority 2016, dated 2023).
“Also recorded” adds a separate entry of the source.

Experiments:
SW620 = assay: Sensibility to AM5; assay type: cell-based; conditions: SW620, Colon
Description: (§1) Cell viability assay. Cell viability assay was carried out by plating 1000 cells/well in 96-well plates. Cells were treated as indicated for 72 h. CellTiter-Blue® Reagent (G8081, Promega) was added after 72 h treatment and cells were incubated for 1 h before recording fluorescence intensities (Excitation, 560/20 nm; Emission, 590/10 nm) using a Perkin Elmer Wallac 1420 Victor2 Microplate Reader.

SW480 = assay: Sensibility to AM5; assay type: cell-based; conditions: SW480, Colon
Description: as §1

[1] = system: ALDH+ iCSCL-10A2 cell subpopulation; assay: Flow cytometry of ALDH+ CSC subpopulation in vitro; assay type: cell-based; conditions: 0.5 μM, 48 h
Description: FIG. 13. Sal and AM5 effect on an ALDH+CSC cell population in vitro. Flow cytometry measurement of the effect of 0.5 μM Sal and AM5 against ALDH+ iCSCL-10A2 cell subpopulation after treated for 48 h. DEAB is the diethylaminobenzaldehyde ALDH inhibitor.

MDA-MB-361 = assay: Sensibility to AM5; assay type: cell-based, human
Description: as §1

MDA-MB-231 = assay: Sensibility to AM5; assay type: cell-based, human; conditions: MDA-MB-231, CSTN
Description: as §1

MCF-7 = assay: Sensibility to AM5; assay type: cell-based, human; conditions: MCF-7, H+
Description: as §1

Zr75.1 = assay: Sensibility to AM5; assay type: cell-based, human; conditions: Zr75.1, H+
Description: as §1

HBL100 = assay: Sensibility to AM5; assay type: cell-based, human; conditions: HBL100, Non-tumoral
Description: as §1

HMLER CD24^high = assay: Sensibility to AM5; assay type: cell-based, human
Description: as §1

T47D = assay: Sensibility to AM5; assay type: cell-based, human; conditions: H+
Description: as §1

BT474 = assay: Sensibility to AM5; assay type: cell-based, human
Description: as §1

BT549 = assay: Sensibility to AM5; assay type: cell-based, human; conditions: BT549, CSTN
Description: as §1

MDA-MD-157 = assay: Sensibility to AM5; assay type: cell-based, human; conditions: MDA-MD-157, CSTN
Description: as §1

MDA-MB-134 = assay: Sensibility to AM5; assay type: cell-based, human
Description: as §1

HMLER CD24^low cells = assay: Fluorescence microscopy of ferritin subcellular localization; assay type: cell-based, human; conditions: 6 h
MCF-7 tumors = assay: Perl's reaction, iron(III) in MCF-7 xenograft tumor tissue; assay type: in vivo, mice; conditions: 3 mg/kg body weight/day, intraperitoneal
Description: Xenograft tumor formation experiments. MCF-7 cell cultures were collected, enzymatically dissociated, washed with PBS, and re-suspended in a PBS/Matrigel mixture (1:1 v/v). The mixture (0.1 mL) was then implanted in the mammary fat pad of 5-week-old female AthymicNude-Fox1nu mice bilaterally (Harlan, France). Mice were maintained in individually-ventilated cages (Tecniplast, France) under constant temperature and humidity. All experiments were performed under laminar flow (Tecniplast France). Mice received estradiol supplementation (0.4 mg/kg) the same day and 7 days from cell injection, and were observed and palpated for tumor appearance. Mice were treated with AM5 (3 mg/kg body weight/day) by means of intraperitoneal injections every 5 opened days of the week. Tumor growth was measured weekly using calipers. Tumor volume was determined using the standard formula: L×W^2×0.52, where L and W are the longest and shortest diameters, respectively. All animal studies were approved by the Direction des services Vétérinaires, Prefecture de Police, Paris, France (authorization number A75-14-08) and the ethical committee (number 34) of Paris Descartes University. No randomization was used and experimenters were blinded to drug treatments and tissue analyses.
Perl's reaction. Tumors from mice were removed at time of sacrifice. Tumors were fixed with 4% PFA and embedded in paraffin. […]

primary breast cells = assay: Toxicity against primary breast cells; assay type: cell-based

C#CCN[C@@H]1C=C[C@]2(O[C@H]([C@@H](CC)C(=O)[C@@H](C)[C@@H](O)[C@H](C)C3O[C@@H](C(CC)C(=O)O)CC[C@@H]3C)[C@@H](C)C[C@H]2C)O[C@@]12CC[C@@](C)([C@H]1CC[C@](O)(CC)[C@H](C)O1)O2 (some centres unmarked) [AM5, Sal-Propargylamine]
Sensibility to AM5 (SW620): Third
Sensibility to AM5 (SW480): Third
effect against ALDH+ subpopulation [1]: selectively targeted the ALDH+ subpopulation; also recorded: more effectively than Sal
Sensibility to AM5 (MDA-MB-361): Second
Sensibility to AM5 (MDA-MB-231): Second
Sensibility to AM5 (MCF-7): First
Sensibility to AM5 (Zr75.1): First
Sensibility to AM5 (HBL100): First
Sensibility to AM5 (HMLER CD24^high): First
Sensibility to AM5 (T47D): Resistant
Sensibility to AM5 (BT474): Second
Sensibility to AM5 (BT549): Resistant
Sensibility to AM5 (MDA-MD-157): Second
Sensibility to AM5 (MDA-MB-134): Second
subcellular localization of ferritin (HMLER CD24^low cells): re-localization of ferritin to the lysosomal compartment
iron(III) in tumor tissue (MCF-7 tumors): accumulation of iron(III)
toxicity against primary breast cells (primary breast cells): little toxicity
